73 compounds from patent publication US20080280933A1, “BENZIMIDAZOLYL COMPOUNDS” (priority 2006, published 2008) can be followed below.

T1 sequence (Q14416 19-872, species assumed): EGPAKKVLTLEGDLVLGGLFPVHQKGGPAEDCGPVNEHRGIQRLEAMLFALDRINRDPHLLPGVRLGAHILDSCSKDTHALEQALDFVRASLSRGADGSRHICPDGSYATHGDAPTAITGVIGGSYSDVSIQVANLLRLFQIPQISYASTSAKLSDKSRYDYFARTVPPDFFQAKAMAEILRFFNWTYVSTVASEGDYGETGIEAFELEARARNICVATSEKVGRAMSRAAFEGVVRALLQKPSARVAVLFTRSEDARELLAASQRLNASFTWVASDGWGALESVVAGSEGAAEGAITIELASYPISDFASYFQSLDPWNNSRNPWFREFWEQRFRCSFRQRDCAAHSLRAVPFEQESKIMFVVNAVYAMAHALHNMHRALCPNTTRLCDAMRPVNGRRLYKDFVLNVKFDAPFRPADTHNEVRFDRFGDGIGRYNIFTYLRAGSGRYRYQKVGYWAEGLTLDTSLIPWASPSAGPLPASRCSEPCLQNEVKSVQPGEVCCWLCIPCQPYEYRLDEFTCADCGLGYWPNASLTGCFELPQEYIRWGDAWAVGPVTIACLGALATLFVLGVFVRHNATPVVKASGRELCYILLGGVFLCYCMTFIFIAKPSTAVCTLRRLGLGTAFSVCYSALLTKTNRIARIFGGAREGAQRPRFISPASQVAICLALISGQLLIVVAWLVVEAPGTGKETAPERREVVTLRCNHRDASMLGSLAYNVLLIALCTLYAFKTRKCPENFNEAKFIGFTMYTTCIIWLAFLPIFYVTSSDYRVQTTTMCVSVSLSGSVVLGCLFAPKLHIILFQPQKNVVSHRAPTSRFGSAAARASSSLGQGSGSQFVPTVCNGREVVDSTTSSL

One assay addresses T1, mGluR2 receptor (metabotropic glutamate receptor 2) (Homo sapiens, UniProt Q14416).
T1 construct: expressed in transfected cells
In words: mGluR2 Potentiator Screen, FLIPR, EC10-EC20 glutamate challenge. In kind it is cell-based. The following applies: listed as 11; read-out: EC50. In short, it runs like this: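 HEK cells stably co-expressing mGluR2 and Gα15, kept glutamine-free overnight, were loaded with Fluo-4 plus probenecid and GPT/pyruvate. Compounds (top 10 μM) were added ≥30 min before an EC10–EC20 glutamate challenge. Peak FLIPR fluorescence ratios were curve-fitted, excluding points above maximal effect, with maxima from on-plate standards.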
By EC50 is commonly meant the concentration giving half of the maximal effect. For the compound “Methyl 2-((4-(2-methoxyphenyl)piperidin-1-yl)methyl)-1-methyl-1H-benzo[d]imidazole-5-carboxylate [Entry 296]”, the 50% effective concentration (EC50) is 3.64 µM.

Still in this assay, the particulars now being: read-out: EC50.
On to `COc1cccc(C2CCN(Cc3nc4cc(Cl)ccc4n3C)CC2)c1` [compound 385], for which the concentration for a half-maximal effect (EC50) was 2.76 µM.

With `COc1ccc(C(F)(F)F)cc1C1CCN(Cc2nc3cc(Cl)ccc3n2C)CC1` [compound 386], the EC50 is over 3.74 µM.

Consider `Cn1c(CN2CCC(c3cc(Cl)ccc3F)CC2)nc2cc(C#N)ccc21` [compound 387], for which the EC50 stood at 0.201 µM.

Consider `COc1ccc(C(F)(F)F)cc1C1CCN(Cc2nc3cc(C#N)ccc3n2C)CC1` [compound 388], for which the EC50 worked out at 0.583 µM.

For the compound `Cn1c(CN2CCC(c3cccc(C(F)(F)F)c3)CC2)nc2cc(C#N)ccc21` [compound 389], the 50% effective concentration (EC50) worked out at 0.285 µM.

With `COc1cc(C(F)(F)F)ccc1C1CCN(Cc2nc3cc(C#N)ccc3n2C)CC1` [compound 390], the EC50 is 0.052 µM.

With `Cn1c(CN2CCC(c3ccc(C(F)(F)F)cc3F)CC2)nc2cc(C#N)ccc21` [compound 391], the EC50 came out at 0.0444 µM.

On to `Cn1c(CN2CCC(c3cc(C(F)(F)F)ccc3F)CC2)nc2cc(C#N)ccc21` [compound 392], for which the EC50 worked out at 0.441 µM.

For `CC(C)Oc1ccccc1C1CCN(Cc2nc3c(F)cccc3n2C)CC1` [compound 393], the EC50 came out at 1.03 µM.

`Cn1c(CN2CCC(c3ccccc3C(F)(F)F)CC2)nc2c(F)cccc21` [compound 394]: the half-maximal effective concentration (EC50) was found to be 0.232 µM.

For the compound `Cn1c(CN2CCC(c3cc(F)cc(F)c3)CC2)nc2c(F)cccc21` [compound 395], the EC50 turned out to be 0.328 µM.

Regarding `Cn1c(CN2CCC(c3cccc(C(F)(F)F)c3)CC2)nc2c(F)cccc21` [compound 396], the EC50 was found to be 0.123 µM.

On to `COc1ccc(C(F)(F)F)cc1C1CCN(Cc2nc3c(F)cccc3n2C)CC1` [compound 397], for which the 50% effective concentration (EC50) stood at 0.435 µM.

For `Cn1c(CN2CCC(c3ccc(C(F)(F)F)cc3F)CC2)nc2c(F)cccc21` [compound 398], the EC50 came to 0.0402 µM.

For the compound `COc1cc(C(F)(F)F)ccc1C1CCN(Cc2nc3c(F)cccc3n2C)CC1` [compound 399], the 50% effective concentration (EC50) was under 0.0124 µM.

For the compound `COc1cc(C(F)(F)F)ccc1C1CCN(Cc2nc3c(F)cccc3n2C)CC1` [compound 400], the EC50 amounted to 0.0436 µM.

With `Cn1c(CN2CCC(c3cc(C(F)(F)F)ccc3F)CC2)nc2c(F)cccc21` [compound 401], the EC50 came out at 0.161 µM.

With `CC(C)Oc1ccccc1C1CCN(Cc2nc3cc(C#N)ccc3n2C)CC1` [compound 402], the concentration for a half-maximal effect (EC50) is 0.523 µM.

For `Cn1c(CN2CCC(c3ccccc3C(F)(F)F)CC2)nc2cc(C#N)ccc21` [compound 403], the EC50 was found to be 0.224 µM.

Turning to `COc1cc(C(F)(F)F)ccc1C1CCN(Cc2nc3cccc(F)c3n2C)CC1` [compound 406], the EC50 was 0.117 µM.

On to `COc1cc(F)ccc1C1CCN(Cc2nc3cccc(F)c3n2C)CC1` [compound 407], for which the EC50 was determined as 0.167 µM.

As for `COc1cc(F)ccc1C1CCN(Cc2nc3cc(F)ccc3n2C)CC1` [compound 408], the EC50 is 0.0672 µM.

For the compound `COc1cc(F)ccc1C1CCN(Cc2nc3ccccc3n2C)CC1` [compound 409], the EC50 worked out at 0.0634 µM.

Regarding `Cn1c(CN2CC[C@@H](c3ccc(F)cc3)[C@H](COc3ccc4c(c3)OCO4)C2)nc2ccccc21` [compound 410], the EC50 was 5.26 µM.

Regarding `Cn1c(CN2CCC(c3ccc(C(F)(F)F)cc3)C(C)(C)C2)nc2ccccc21` (centres unmarked) [compound 411], the EC50 amounted to 0.633 µM.

On to `CC(C)Oc1ccc(C2CCN(Cc3nc4ccccc4n3C)CC2)cc1` [compound 412], for which the EC50 was found to be 0.105 µM.

Take `Cn1c(CN2CCC(c3ccccc3OC(F)(F)F)CC2)nc2ccccc21` [compound 413]: the EC50 is 0.0776 µM.

Regarding `Cn1c(CN2CCC(c3cc(F)cc(F)c3)CC2)nc2ccccc21` [compound 414], the EC50 amounted to 0.126 µM.

Regarding `Cn1c(CN2CCC(c3cc(F)cc(F)c3)CC2)nc2ccccc21` [compound 415], the EC50 is 0.189 µM.

In the case of `Cn1c(CN2CCC(c3ccccc3C#N)CC2)nc2ccccc21` [compound 416], the EC50 was found to be 0.168 µM.

Take `Cn1c(CN2CCC(c3cccc(Cl)c3)CC2)nc2ccccc21` [compound 417]: the EC50 was 0.18 µM.

`Cn1c(CN2CCC(c3cccc(C#N)c3)CC2)nc2ccccc21` [compound 418]: the EC50 amounted to 1.61 µM.

Regarding `Cn1c(CN2CCC(c3cccc(C(C)(C)C)c3)CC2)nc2ccccc21` [compound 419], the EC50 was 0.149 µM.

Turning to `Cn1c(CN2CCC(c3ccc(Cl)cc3)CC2)nc2ccccc21` [compound 420], the EC50 was 0.664 µM.

Take `COc1ccc(C2CCN(Cc3nc4ccccc4n3C)CC2)cc1` [compound 421]: the EC50 turned out to be 0.213 µM.

As for `Cn1c(CN2CCC(c3ccc(F)cc3F)CC2)nc2ccccc21` [compound 422], the EC50 came out at 0.0146 µM.

Consider `Cn1c(CN2CCC(c3ccc(F)cc3F)CC2)nc2cc(F)ccc21` [compound 423], for which the EC50 stood at 0.0352 µM.

Consider `Cn1c(CN2CCC(c3ccc(F)cc3F)CC2)nc2cccc(F)c21` [compound 424], for which the EC50 turned out to be 0.0483 µM.

With `COc1cc(C2CCN(Cc3nc4ccccc4n3C)CC2)ccc1F` [compound 425], the EC50 worked out at 0.434 µM.

As to `CCc1ccc(C2CCN(Cc3nc4ccccc4n3C)CC2)cc1` [compound 426], the EC50 was found to be 0.0892 µM.

Consider `Cn1c(CN2CCC(c3ccc(F)cc3F)CC2)nc2cc(C#N)ccc21` [compound 427], for which the EC50 came to 0.14 µM.

As to `Cn1c(CN2CCC(c3ccc(C(F)(F)F)cc3)C(O)C2)nc2ccccc21` (centres unmarked) [compound 428], the EC50 amounted to 1.12 µM.

Consider `Cc1ccccc1C1CCN(Cc2nc3ccccc3n2C)CC1` [compound 429], for which the EC50 came out at 0.0651 µM.

Take `Cn1c(CN2CCC(c3cccc(F)c3)CC2)nc2ccccc21` [compound 430]: the EC50 was 3.31 µM.

Regarding `Cn1c(CN2CCC(c3cc(F)cc4c3OCCC4)CC2)nc2ccccc21` [compound 431], the EC50 amounted to 5.34 µM.

With `Cn1c(CN2CCC(F)(c3ccc(Cl)cc3)CC2)nc2ccccc21` [compound 432], the EC50 turned out to be 0.257 µM.

For the compound `Cn1c(CN2CCC(F)(c3ccc(C(F)(F)F)cc3)CC2)nc2ccccc21` [compound 433], the EC50 was 0.122 µM.

For the compound `Cn1c(CN2CCC(F)(c3ccc(F)cc3)CC2)nc2ccccc21` [compound 434], the concentration for a half-maximal effect (EC50) was 0.308 µM.

In the case of `Cc1cccc(NC(=O)c2cccc(C3CCN(Cc4nc5ccccc5n4C)CC3)c2)n1` [compound 435], the EC50 was found to be 3.3 µM.

As to `CCCN(CC1CC1)C(=O)c1cccc(C2CCN(Cc3nc4ccccc4n3C)CC2)c1` [compound 436], the EC50 amounted to 2.21 µM.

Regarding `Cn1c(CN2CCC(c3ccc(C(=O)NC4CCCC4)cc3)CC2)nc2ccccc21` [compound 437], the EC50 was 5.27 µM.

Consider `COc1cccc(F)c1C1CCN(Cc2nc3ccccc3n2C)CC1` [compound 438], for which the concentration for a half-maximal effect (EC50) stood at 0.081 µM.

Regarding `Cn1c(CN2CCC(F)(c3ccc(F)cc3)CC2)nc2cccc(F)c21` [compound 439], the EC50 was found to be 0.46 µM.

For the compound `CC1=C(c2ccccc2)C(C)CN(Cc2nc3ccccc3n2C)C1` (centres unmarked) [compound 440], the EC50 worked out at 2.85 µM.

On to `Cn1c(CN2CCC(c3ccc(C(F)(F)F)cc3)C(F)C2)nc2ccccc21` (centres unmarked) [compound 441], for which the EC50 was found to be 0.157 µM.

As for `CCOc1ccc(C2CCN(Cc3nc4ccccc4n3C)CC2)cc1` [compound 442], the EC50 stood at 0.0807 µM.

For the compound `Cn1c(CN2CCC(c3ccc(F)c(Cl)c3)CC2)nc2ccccc21` [compound 443], the EC50 came out at 0.057 µM.

In the case of `Cn1c(CN2CCC(c3ccc(F)c(Cl)c3)CC2)nc2cccc(F)c21` [compound 444], the EC50 amounted to 0.131 µM.

As for `Cn1c(CN2CCC(c3ccc(C(F)(F)F)cc3)C(F)C2)nc2cccc(F)c21` (centres unmarked) [compound 445], the concentration for a half-maximal effect (EC50) came out at 0.137 µM.

With `Cn1c(CN2CCC(c3ccc(Cl)c(C(F)(F)F)c3)CC2)nc2ccccc21` [compound 446], the EC50 worked out at 0.0429 µM.

As for `Cn1c(CN2CCC(c3ccc(F)c(Cl)c3)CC2)nc2cc(F)ccc21` [compound 447], the EC50 worked out at 0.0456 µM.

For `Cn1c(CN2CCC(c3ccc(Cl)c(F)c3)CC2)nc2ccccc21` [compound 450], the EC50 was 0.079 µM.

Take `Cn1c(CN2CCC(c3ccc(Cl)cc3F)CC2)nc2ccccc21` [compound 451]: the EC50 worked out at 0.00757 µM.

For `Cn1c(CN2CCC(c3cccc(F)c3F)CC2)nc2ccccc21` [compound 452], the EC50 is 0.0202 µM.

On to `Cn1c(CN2CCC(c3ccc(Cl)c(F)c3)CC2)nc2cccc(F)c21` [compound 453], for which the EC50 came out at 0.157 µM.

For `Cn1c(CN2CCC(c3ccc(Cl)c(F)c3)CC2)nc2cc(F)ccc21` [compound 454], the EC50 is 0.0882 µM.

Regarding `C[C@@H]1CN(Cc2ccc(C3CCN(Cc4nc5ccccc5n4C)CC3)cc2)C[C@H](C)O1` [compound 455], the EC50 was 2.59 µM.

For `Cn1c(CN2CCC(c3ccc(Cl)cc3F)CC2)nc2cc(F)ccc21` [compound 458], the concentration for a half-maximal effect (EC50) came to 0.0419 µM.

As to `Cn1c(CN2CC[C@@H]3c4ccccc4OC[C@H]3C2)nc2ccccc21` [compound 470], the EC50 stood at 1.52 µM.

As for `Cn1c(CN2CC[C@H]3c4ccccc4OC[C@H]3C2)nc2ccccc21` [compound 471], the EC50 was determined as 2.07 µM.

As for `CC1CN(Cc2nc3ccccc3n2C)CCC1c1ccc(OC(F)(F)F)cc1F` (centres unmarked) [compound 474], the EC50 was found to be 0.0767 µM.

For the compound “(2-((4-(2-Fluorophenyl)piperidin-1-yl)methyl)-1-methyl-1H-benzo[d]imidazol-5-yl)methanol [Entry 297]”, the EC50 was 0.914 µM.

Regarding “Methyl 2-((4-(2-methoxyphenyl)piperidin-1-yl)methyl)-1-methyl-1H-benzo[d]imidazole-5-carboxylate [Entry 296]”, the EC50 turned out to be 0.414 µM.
